PubChem BioAssay AID1963866 (Molecular Pharmacology Branch, DTP, NCI, 2024)

Tested on: PDC KRAS tumor spheroids with HUVEC/MSC, viability
Assay: Anticancer human tumor 349418-098-R-PDC patient-derived lung adenocarcinoma cell line growth inhibition [KRAS2]
Conditions: for IC50: curve of first compound; for viability, T/C: stronger effect = lower value
Procedure, shortened: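 KRAS-mutant tumor cells were grown as spheroids with HUVEC endothelial cells and human MSCs as stroma. Targeted agents were tested alone and with KRAS pathway inhibitors. Doses started at or near clinical Cmax, or 10 microM, descending half-log.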

[1] = second compound 0.1 µM, first compound 0.0316 µM
[2] = second compound 0.1 µM, first compound 0.1 µM
[3] = second compound 0.1 µM, first compound 0.316 µM
[4] = second compound 0.1 µM, first compound 1 µM
[5] = second compound 0.1 µM, first compound 3.16 µM
[6] = second compound 0.1 µM, first compound 10 µM
[7] = second compound 0.316 µM, first compound 0.0316 µM
[8] = second compound 0.316 µM, first compound 0.1 µM
[9] = second compound 0.316 µM, first compound 0.316 µM
[10] = second compound 0.316 µM, first compound 1 µM
[11] = second compound 0.316 µM, first compound 3.16 µM
[12] = second compound 0.316 µM, first compound 10 µM
[13] = second compound 1 µM, first compound 0.0316 µM
[14] = second compound 1 µM, first compound 0.1 µM
[15] = second compound 1 µM, first compound 0.316 µM
[16] = second compound 1 µM, first compound 1 µM
[17] = second compound 1 µM, first compound 3.16 µM
[18] = second compound 1 µM, first compound 10 µM
[19] = second compound 3.16 µM, first compound 0.0316 µM
[20] = second compound 3.16 µM, first compound 0.1 µM
[21] = second compound 3.16 µM, first compound 0.316 µM
[22] = second compound 3.16 µM, first compound 1 µM
[23] = second compound 3.16 µM, first compound 3.16 µM
[24] = second compound 3.16 µM, first compound 10 µM
[25] = second compound 10 µM, first compound 0.0316 µM
[26] = second compound 10 µM, first compound 0.1 µM
[27] = second compound 10 µM, first compound 0.316 µM
[28] = second compound 10 µM, first compound 1 µM
[29] = second compound 10 µM, first compound 3.16 µM
[30] = second compound 10 µM, first compound 10 µM
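Also: spheroids exposed to compounds for seven days before readout.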

CC(C)NCC(C(=O)N1CCN(c2ncnc3c2C(C)CC3O)CC1)c1ccc(Cl)cc1 (stereo not given) + CC1OCC2(CCN(c3cnc(Sc4ccnc(N)c4Cl)c(N)n3)CC2)C1N
IC50 (second compound 0.1 µM): 270 nM
IC50 (second compound 0.316 µM): 271 nM
IC50 (second compound 1 µM): 472 nM
IC50 (second compound 3.16 µM): 358 nM
IC50 (second compound 10 µM): 401 nM
viability, T/C [1]: 98.9%
viability, T/C [2]: 78.6%
viability, T/C [3]: 42.5%
viability, T/C [4]: 25.8%
viability, T/C [5]: 13.9%
viability, T/C [6]: 7.23%
viability, T/C [7]: 100%
viability, T/C [8]: 77.7%
viability, T/C [9]: 43%
viability, T/C [10]: 25.9%
viability, T/C [11]: 14.5%
viability, T/C [12]: 6.51%
viability, T/C [13]: 98.2%
viability, T/C [14]: 85.1%
viability, T/C [15]: 61.7%
viability, T/C [16]: 28.7%
viability, T/C [17]: 17.4%
viability, T/C [18]: 7.82%
viability, T/C [19]: 92.8%
viability, T/C [20]: 80.4%
viability, T/C [21]: 51.8%
viability, T/C [22]: 26.4%
viability, T/C [23]: 19.8%
viability, T/C [24]: 7.52%
viability, T/C [25]: 87.1%
viability, T/C [26]: 83.6%
viability, T/C [27]: 51.5%
viability, T/C [28]: 31%
viability, T/C [29]: 15.3%
viability, T/C [30]: 7.92%

COc1cc(Nc2ncc3c(n2)-c2ccc(Cl)cc2C(c2c(F)cccc2OC)=NC3)ccc1C(=O)O + CC1OCC2(CCN(c3cnc(Sc4ccnc(N)c4Cl)c(N)n3)CC2)C1N
IC50 (second compound 0.1 µM): 43.1 nM
IC50 (second compound 0.316 µM): 43.6 nM
IC50 (second compound 1 µM): 50.2 nM
IC50 (second compound 3.16 µM): < 31.6 nM
IC50 (second compound 10 µM): 33.6 nM
viability, T/C [1]: 56.5%
viability, T/C [2]: 32.4%
viability, T/C [3]: 32.4%
viability, T/C [4]: 40.1%
viability, T/C [5]: 30.8%
viability, T/C [6]: 24%
viability, T/C [7]: 57.4%
viability, T/C [8]: 27.8%
viability, T/C [9]: 38.8%
viability, T/C [10]: 26.4%
viability, T/C [11]: 40.2%
viability, T/C [12]: 20.4%
viability, T/C [13]: 57.4%
viability, T/C [14]: 35.4%
viability, T/C [15]: 39%
viability, T/C [16]: 38.1%
viability, T/C [17]: 27.3%
viability, T/C [18]: 25%
viability, T/C [19]: 39.4%
viability, T/C [20]: 36.3%
viability, T/C [21]: 28%
viability, T/C [22]: 28.7%
viability, T/C [23]: 32.9%
viability, T/C [24]: 28.4%
viability, T/C [25]: 51%
viability, T/C [26]: 33.5%
viability, T/C [27]: 32.8%
viability, T/C [28]: 31.1%
viability, T/C [29]: 31.4%
viability, T/C [30]: 27%

CC(=O)Nc1cccc(-n2c(=O)n(C3CC3)c(=O)c3c(Nc4ccc(I)cc4F)n(C)c(=O)c(C)c32)c1 + CC1OCC2(CCN(c3cnc(Sc4ccnc(N)c4Cl)c(N)n3)CC2)C1N
IC50 (second compound 0.1 µM): < 0.1 nM
IC50 (second compound 0.316 µM): < 0.1 nM
IC50 (second compound 1 µM): < 0.1 nM
IC50 (second compound 3.16 µM): < 0.1 nM
IC50 (second compound 10 µM): < 0.1 nM
viability, T/C (second compound 0.1 µM, first compound 0.0001 µM): 25%
viability, T/C (second compound 0.1 µM, first compound 0.000316 µM): 10.6%
viability, T/C (second compound 0.1 µM, first compound 0.001 µM): 8.26%
viability, T/C (second compound 0.1 µM, first compound 0.00316 µM): 7.14%
viability, T/C (second compound 0.1 µM, first compound 0.01 µM): 6.71%
viability, T/C [1]: 4.89%
viability, T/C (second compound 0.316 µM, first compound 0.0001 µM): 13.9%
viability, T/C (second compound 0.316 µM, first compound 0.000316 µM): 9.13%
viability, T/C (second compound 0.316 µM, first compound 0.001 µM): 6.31%
viability, T/C (second compound 0.316 µM, first compound 0.00316 µM): 6.44%
viability, T/C (second compound 0.316 µM, first compound 0.01 µM): 5.73%
viability, T/C [7]: 4.97%
viability, T/C (second compound 1 µM, first compound 0.0001 µM): 12.5%
viability, T/C (second compound 1 µM, first compound 0.000316 µM): 6.75%
viability, T/C (second compound 1 µM, first compound 0.001 µM): 5.3%
viability, T/C (second compound 1 µM, first compound 0.00316 µM): 5.39%
viability, T/C (second compound 1 µM, first compound 0.01 µM): 5.41%
viability, T/C [13]: 4.31%
viability, T/C (second compound 3.16 µM, first compound 0.0001 µM): 16.2%
viability, T/C (second compound 3.16 µM, first compound 0.000316 µM): 6.1%
viability, T/C (second compound 3.16 µM, first compound 0.001 µM): 5.56%
viability, T/C (second compound 3.16 µM, first compound 0.00316 µM): 4.05%
viability, T/C (second compound 3.16 µM, first compound 0.01 µM): 3.76%
viability, T/C [19]: 3.53%
viability, T/C (second compound 10 µM, first compound 0.0001 µM): 18.9%
viability, T/C (second compound 10 µM, first compound 0.000316 µM): 6.01%
viability, T/C (second compound 10 µM, first compound 0.001 µM): 3.71%
viability, T/C (second compound 10 µM, first compound 0.00316 µM): 3.71%
viability, T/C (second compound 10 µM, first compound 0.01 µM): 3.6%
viability, T/C [25]: 3.62%

COc1cc2nccc(Oc3ccc(NC(=O)C4(C(=O)Nc5ccc(F)cc5)CC4)cc3)c2cc1OC + C=CC(=O)N1CCN(c2nc(=O)n(-c3c(C)ccnc3C(C)C)c3nc(-c4c(O)cccc4F)c(F)cc23)C(C)C1
IC50 (second compound 0.1 µM): 1690 nM
IC50 (second compound 0.316 µM): 1650 nM
IC50 (second compound 1 µM): 1610 nM
IC50 (second compound 3.16 µM): 1190 nM
IC50 (second compound 10 µM): < 31.6 nM
viability, T/C [1]: 99.4%
viability, T/C [2]: 98.3%
viability, T/C [3]: 90.7%
viability, T/C [4]: 78.6%
viability, T/C [5]: 13.2%
viability, T/C [6]: 18.1%
viability, T/C [7]: 93.2%
viability, T/C [8]: 92.2%
viability, T/C [9]: 86.4%
viability, T/C [10]: 75.9%
viability, T/C [11]: 9.48%
viability, T/C [12]: 22.8%
viability, T/C [13]: 83.2%
viability, T/C [14]: 80.7%
viability, T/C [15]: 73.2%
viability, T/C [16]: 76.7%
viability, T/C [17]: 10.7%
viability, T/C [18]: 14.3%
viability, T/C [19]: 62.1%
viability, T/C [20]: 64.5%
viability, T/C [21]: 58.6%
viability, T/C [22]: 56.4%
viability, T/C [23]: 10.2%
viability, T/C [24]: 16.6%
viability, T/C [25]: 30.1%
viability, T/C [26]: 38.1%
viability, T/C [27]: 36%
viability, T/C [28]: 30.1%
viability, T/C [29]: 7.88%
viability, T/C [30]: 9.17%
